These results are taken from US12215082B1 (priority 2023, dated 2025).

The subject of this assay is Mycobacterium tuberculosis H37Rv (susceptible). In words: Resazurin Microplate Assay (REMA), anti-tubercular activity, H37Rv strain. It is filed as cell-based. The following applies: 192 h, read-out: MIC Susceptible (H37Rv). (Alamar Blue is a resazurin reagent that responds to reducing activity.)

As usually defined, the MIC is the lowest concentration that inhibits growth of the organism. For the compound `O=C(C[n+]1ccc(/C=N/O)cc1)c1ccc(F)cc1.[Br-]` [Compound 3c, (E)-1-(2-(4-Fluorophenyl)-2-oxoethyl)-4-((hydroxyimino)methyl)pyridin-1-ium bromide], the MIC is 32 mg/L.

For the compound `N#Cc1ccc(C(=O)C[n+]2ccc(/C=N/O)cc2)cc1.[Br-]` [Compound 3d, (E)-1-(2-(4-Cyanophenyl)-2-oxoethyl)-4-((hydroxyimino)methyl)pyridin-1-ium bromide], the MIC was found to be 16 mg/L.

As to `O=C(C[n+]1ccc(/C=N/O)cc1)c1ccccc1[N+](=O)[O-].[Br-]` [Compound 3e, (E)-4-((Hydroxyimino)methyl)-1-(2-(2-nitrophenyl)-2-oxoethyl)pyridin-1-ium bromide], the MIC was 64 mg/L.

Regarding `O=C(C[n+]1ccc(/C=N/O)cc1)c1ccc(Br)cc1.[Br-]` [Compound 3b, (E)-1-(2-(4-Bromophenyl)-2-oxoethyl)-4-((hydroxyimino)methyl)pyridin-1-ium bromide], the minimum inhibitory concentration (MIC) was determined as 32 mg/L.

Turning to `O=C(C[n+]1ccc(/C=N/O)cc1)c1ccccc1.[Br-]` [Compound 3a, (E)-4-((Hydroxyimino)methyl)-1-(2-oxo-2-phenylethyl)pyridin-1-ium bromide], the MIC came to 32 mg/L.
